Patent US9738600B2, “ROR gamma (RORγ) modulators” (LEAD PHARMA CEL MODELS IP B.V., priority 2013, dated 2017)
pIC50: −log10 of the molar value.

Assays:
[1] = tested on: IL-17A production in anti-CD3/anti-CD28 stimulated peripheral blood mononuclear cells (PBMCs); assay: Peripheral blood mononuclear cell (PBMC) IL-17 assay; type: cell-based; details: Homo sapiens, 120 h, inhibition of IL-17A production, 5 days, IL-17 ELISA, read-out: mean pIC50 (converted)
Method: The assay procedure and results are described below.
This assay is designed to measure the levels of IL-17A secreted from anti-CD3/anti-CD28 stimulated PBMCs with the aim of measuring RORγ mediated inhibition of IL-17A production.
The assay medium consists of 90% RPMI 1640 (Lonza), 10% heat inactivated fetal bovin serum (FBS, Lonza) and 100 U/mL penicillin/streptomycin solution.
Anti-CD3 antibody (BD Pharmingen) was diluted to 10 μg/ml in PBS (Lonza). 30 μL of 10 μg/ml anti-CD3 solution was added to the inner 60 wells, excluding any negative control wells, of a 96-well cell culture treated U-bottom plate (Greiner). Plates were incubated overnight (16-24 hours) at 37° C. and 5% CO2.
Peripheral blood mononuclear cells were separated from buffy coats (Sanquin) using Ficoll-Paque PREMIUM separation medium (GE Healthcare Life Sciences) according to manufacturer's protocol and re-suspended in assay medium at 37° C.
Test compounds were diluted, starting from a 10 mM dimethylsulfoxide (DMSO) stock solution, to serial dilutions in DMSO at 200× the final test concentration. Subsequently, these solutions were diluted in two dilution steps in assay medium to 10× the final test concentration. The DMSO concentration of the 10× test compound solution was 5%.
Anti-CD28 antibody (BD Pharmingen) was diluted to 20 μg/mL in PBS. The PBMCs were diluted to a concentration of 2.5×10^6 cells/mL in assay medium at 37° C.
For compound screening, the anti-CD3 coated plates were washed three times with PBS, the wells were subsequently aspirated using vacuum. To each screening well 80 μL of the PBMC suspension, 10 μL of the anti-CD28 solution and 10 μL of the 10× test compound solution was added, resulting in the final test concentration with 0.5% DMSO. All outer wells were filled with assay medium to prevent evaporation. Plates were incubated for 5 days at 37° C. and 5% CO2.
After incubation the plates were spun down at 1500 rpm for 4 minutes and the supernatant was collected. Subsequently, the IL-17A levels in the supernatants was determined using an IL-17 ELISA kit (human IL-17 DuoSet, R&D systems) according to manufacturer's protocol.
The half maximum inhibitory concentration (IC50) values for the test compounds were calculated from the IL-17A signal using GraphPad Prism software (GraphPad Software).

RORγ = biological target: T1, RORγ (Homo sapiens, UniProt P51449); assay: RORγ GAL4 reporter gene assay; details: mean pIC50, inhibition of RORγ (GAL4-RORγ-LBD) in 293FT cells, luciferase readout, overnight incubation
T1 sequence (P51449 269-508 limits assumed): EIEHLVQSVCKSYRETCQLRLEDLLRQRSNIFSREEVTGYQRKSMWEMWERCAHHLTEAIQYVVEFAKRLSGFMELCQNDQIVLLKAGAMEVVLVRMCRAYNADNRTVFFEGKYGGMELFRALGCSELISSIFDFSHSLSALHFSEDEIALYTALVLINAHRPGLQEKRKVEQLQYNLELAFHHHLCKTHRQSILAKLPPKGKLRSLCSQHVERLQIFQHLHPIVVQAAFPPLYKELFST
Text: The RORγ ligand-binding domain (LBD) was fused to the yeast GAL4 DNA binding domain (DBD) and placed under the control of the human cytomegalovirus (CMV) immediate early promoter, using expression vector pFN26A (Promega) and standard recombinant DNA cloning methods.
To monitor the inhibitory effect of compounds on RORγ, a transcriptional reporter construct was used. The pGL4.35 vector (Promega) contains nine copies of the GAL4 Upstream Activator Sequence (UAS). This sequence drives the transcription of the luciferase reporter gene luc2P in response to binding of a fusion protein containing the GAL4 DNA binding domain, as for example expressed by the GAL4-RORγ-LBD and GAL4-VP16 expression vectors described above.
The day after transfection, cells were plated into 96 well plates, test compound was added and the plates were incubated overnight. Subsequently, the firefly luciferase activity was quantified using luciferase detection reagent and luminescence readout.
1500 μL of this reagent mixture was added to 5 μg of GAL4 fusion protein expression vector and 5 μg of the transcriptional reporter construct, and incubated at RT for 20 minutes.
Subsequently, the cells were washed with Phosphate Buffered Saline (PBS) (Lonza), after which the PBS was removed. To dissociate the cells, 1 ml of TrypLE Express (Invitrogen) was added to the flask, followed by incubation at RT until the cells visually started to detach. Cells were collected in 5 mL of assay medium (DMEM culture medium (Lonza), 10% dialyzed FBS (Invitrogen) and Pen/Strep (Lonza)) to achieve a single cell suspension. 10×10^6 cells were spun down and re-suspended in 10 mL of assay medium. Subsequently, the cell suspension was added to the transfection mix tube, and then transferred as a whole to a T75 flask (Greiner), followed by overnight (16-24 hours) incubation at 37° C. and 5% CO2.
For compound screening, the cells were harvested (as described above) and counted. […] 80 μL of cell suspension (60,000 cells) was plated per well into a white, flat bottom, tissue culture treated, 96 well screening plates (Greiner).
Test compounds were diluted, starting from a 10 mM dimethylsulfoxide (DMSO) stock solution, to serial dilutions in DMSO at 500× the final test concentration. Subsequently, these solutions were diluted to 5× the final test concentration in two 10-fold-dilution steps in assay medium. The final DMSO concentration of the 5× test compound solution was 1%. 20 μL of the 5× test compound solution was added to each test well of the 96 well plate previously plated with 80 μl cell suspension, resulting in the final test concentration with 0.2% DMSO.
The plates were incubated overnight (16-24 hours) at 37° C. and 5% CO2.
For the luciferase readout, the luciferase reagent (Britelite Plus, Perkin Elmer) was brought to RT. […] The luciferase luminescence signal was measured using a Wallac Victor Microplate Reader (Perkin Elmer).
The half maximum inhibitory concentration (IC50) values for the test compounds were calculated from the luciferase signal using GraphPad Prism software (GraphPad Software).

pIC50 (RORγ)	SMILES	IC50 [1] [µM]
≥ 7.00	O=C(Cc1ccc(S(=O)(=O)CC2CC2)cc1)Nc1ccc(C(O)(C(F)(F)F)C(F)(F)F)cn1 [Example 107, 2-(4-((cyclopropylmethyl)sulfonyl)phenyl)-N-(5-(1,1,1,3,3,3-hexafluoro-2-hydroxypropan-2-yl)pyridin-2-yl)acetamide]	≤ 1
≥ 7.00	O=C(Cc1ccc(S(=O)(=O)NC2CC2)cc1)Nc1ccc(C(O)(C(F)(F)F)C(F)(F)F)c(F)c1 [Example 33, 2-(4-(N-cyclopropylsulfamoyl)phenyl)-N-(3-fluoro-4-(1,1,1,3,3,3-hexafluoro-2-hydroxypropan-2-yl)phenyl)acetamide]	≤ 1
≥ 7.00	O=C(Cc1ccc(S(=O)(=O)NC2CC2)cc1)Nc1ccc(C(O)(C(F)(F)F)C(F)(F)F)cc1F [Example 35, 2-(4-(N-cyclopropylsulfamoyl)phenyl)-N-(2-fluoro-4-(1,1,1,3,3,3-hexafluoro-2-hydroxypropan-2-yl)phenyl)acetamide]	≤ 1
–	CCS(=O)(=O)c1ccc(CC(=O)Nc2ccc(C(O)(C(F)(F)F)C(F)(F)F)cc2)cc1 [Example 2, 2-(4-(ethylsulfonyl)phenyl)-N-(4-(1,1,1,3,3,3-hexafluoro-2-hydroxypropan-2-yl)phenyl)acetamide]	≤ 1
≥ 6.00	CCS(=O)(=O)c1ccc(CC(=O)Nc2ccc(C(O)(C(F)(F)F)C(F)(F)F)c(Cl)c2)cc1 [Example 84, N-(3-chloro-4-(1,1,1,3,3,3-hexafluoro-2-hydroxypropan-2-yl)phenyl)-2-(4-(ethylsulfonyl)phenyl)acetamide]	–
≥ 7.00	CCS(=O)(=O)c1ccc(CC(=O)Nc2ccc(C(O)(CC(C)(C)C)C(F)(F)F)cc2)cc1 (stereo not shown) [Example 96, 2-(4-(ethylsulfonyl)phenyl)-N-(4-(1,1,1-trifluoro-2-hydroxy-4,4-dimethylpentan-2-yl)phenyl)acetamide]	–
≥ 6.00	CCCCC(O)(c1ccc(NC(=O)Cc2ccc(S(=O)(=O)CC)cc2)cc1)C(F)(F)F (stereo not shown) [Example 72, 2-(4-(ethylsulfonyl)phenyl)-N-(4-(1,1,1-trifluoro-2-hydroxyhexan-2-yl)phenyl)acetamide]	–
≥ 7.00	CCS(=O)(=O)c1ccc(CC(=O)Nc2ccc(C(O)(CC(C)C)C(F)(F)F)cc2)cc1 (stereo not shown) [Example 66, 2-(4-(ethylsulfonyl)phenyl)-N-(4-(1,1,1-trifluoro-2-hydroxy-4-methylpentan-2-yl)phenyl)acetamide]	–
≥ 7.00	CC(C)CCCC(O)(c1ccc(NC(=O)Cc2ccc(S(=O)(=O)CC3CC3)cc2)cc1)C(F)(F)F (stereo not shown) [Example 108, 2-(4-((cyclopropylmethyl)sulfonyl)phenyl)-N-(4-(1,1,1-trifluoro-2-hydroxy-6-methylheptan-2-yl)phenyl)acetamide]	–
≥ 6.00	O=C(Cc1ccc(S(=O)(=O)CC2CC2)cc1)Nc1ccc(C(OCCC2CC2)(C(F)(F)F)C(F)(F)F)cc1 [Example 58, N-(4-(2-(2-cyclopropylethoxy)-1,1,1,3,3,3-hexafluoropropan-2-yl)phenyl)-2-(4-((cyclopropylmethyl)sulfonyl)phenyl)acetamide]	–
